Data published in patent US20250262201A1, “COMPOUNDS AND METHODS USEFUL FOR STABILIZING PHENYLALANINE HYDROXYLASE MUTATIONS” (Agios Pharmaceuticals, Inc., priority 2022, published 2025).

biological target: T1, human PAH with the R408W mutation (Homo sapiens, UniProt P00439, R408W); assay: Cell Based Phenylalanine Flux Assay; set-up: scale not given here; settings: A375 R408W cells, 24 hrs with compound, then 20 μM sepiapterin and 800 μM 13C9,15N-Phenylalanine for 4 hours; 13C-Tyrosine by LC-MS; average where tested multiple times
T1 construct: expressed in transfected cells
T1 sequence (P00439 1-452 R408W): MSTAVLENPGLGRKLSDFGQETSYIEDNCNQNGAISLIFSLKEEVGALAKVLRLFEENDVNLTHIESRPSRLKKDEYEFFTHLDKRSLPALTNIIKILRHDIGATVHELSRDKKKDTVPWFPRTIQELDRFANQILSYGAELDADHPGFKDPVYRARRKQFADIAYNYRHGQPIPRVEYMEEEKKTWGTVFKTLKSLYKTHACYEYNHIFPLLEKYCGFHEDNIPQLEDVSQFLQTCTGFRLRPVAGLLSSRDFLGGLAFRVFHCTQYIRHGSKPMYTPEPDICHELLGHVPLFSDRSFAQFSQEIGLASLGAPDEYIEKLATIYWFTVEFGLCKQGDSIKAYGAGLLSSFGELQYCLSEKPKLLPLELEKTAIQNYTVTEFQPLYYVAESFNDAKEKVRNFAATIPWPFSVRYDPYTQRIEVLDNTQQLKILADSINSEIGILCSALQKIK

Compound | AC50
CC1CN(C(=O)c2oc(C(C)(C)O)nc2C(F)(F)F)C(c2cc3ccccc3cn2)c2nc[nH]c21 [(4R,7R) diastereomer of (2-(2-hydroxypropan-2-yl)-4-(trifluo] | E, E,
CC1CN(C(=O)c2oc(C(C)(C)O)nc2C(F)(F)F)C(c2cc3ccccc3cn2)c2nc[nH]c21 [(4R, 7S) diastereomer of (2-(2-hydroxypropan-2-yl)-4-(triflu] | E, E,
CC1CN(C(=O)c2nnc(C(C)(C)O)o2)C(c2cc3ccccc3cn2)c2nc[nH]c21 [(4S, 7R) diastereomer of 2-{5-[4-(isoquinolin-3-yl)-7-methyl] | E, E
Cc1nnc(C(=O)N2CC(C)c3[nH]cnc3C2c2cc3ccccc3cn2)o1 [(4S, 7R) diastereomer of 3-[7-methyl-5-(5-methyl-1,3,4-oxadi] | E, E
CC1CN(C(=O)c2ocnc2C(F)(F)F)C(c2cc3ccccc3cn2)c2nc[nH]c21 [(4S, 7R) diastereomer of 3-[7-methyl-5-[4-(trifluoromethyl)-] | E, E
CC1CN(C(=O)c2nnc(N3CCN(C)CC3)o2)C(c2cc3ccccc3cn2)c2nc[nH]c21 [(4S, 7R) diastereomer of 3-[7-methyl-5-[5-(4-methylpiperazin] | E, E
COCCNc1nnc(C(=O)N2CC(C)c3[nH]cnc3C2c2cc3ccccc3cn2)o1 [(4S, 7R) diastereomer of 5-[4-(isoquinolin-3-yl)-7-methyl-1H] | E, E
CC1CN(C(=O)c2oc(C(C)(C)O)nc2C(F)(F)F)C(c2cc3ccccc3cn2)c2nc[nH]c21 [(4S, 7R) diastereomer of (2-(2-hydroxypropan-2-yl)-4-(triflu] | E, E
CC1CN(C(=O)c2oc(-c3ccccn3)nc2C(F)(F)F)C(c2cc3ccccc3cn2)c2nc[nH]c21 [(4S, 7R) diastereomer of (4-(isoquinolin-3-yl)-7-methyl-6,7-] | E, E
CC1CN(C(=O)c2nnc(C(C)(C)O)o2)C(c2cc3ccccc3cn2)c2nc[nH]c21 [(4S, 7S) diastereomer of 2-{5-[4-(isoquinolin-3-yl)-7-methyl] | E, E

same assay, conditions: A375 R408W cells, 24 hrs with compound, then 20 μM sepiapterin and 800 μM 13C9,15N-Phenylalanine for 4 hours; 13C-Tyrosine by LC-MS; average where tested multiple times; read-out: AC50

Compound | AC50
CC1CN(C(=O)c2nnc(N3CC(F)C3)o2)C(c2cc3ccccc3cn2)c2nc[nH]c21 [(4S, 7S) diastereomer of 3-[5-[5-(3-fluoroazetidin-1-yl)-1,3] | > 5000 nM
COCc1ccc2c(C(=O)N3CC(C)c4[nH]cnc4C3c3cc4ccccc4cn3)cnn2c1 [(4S, 7S) diastereomer of 3-[5-[6-(methoxymethyl)pyrazolo[1,5] | 1000 to 5000 nM

same assay, conditions: A375 cells expressing human R408W PAH; 24 hrs compound incubation; 13C-Tyrosine by LC-MS; average where tested multiple times; read-out: AC50

Compound | AC50
C[C@H](O)c1nc(C(F)F)c(C(=O)N2CCc3[nH]cnc3C2c2ccc3ccccc3n2)o1 (stereo in doubt) [Example 122, (4-(difluoromethyl)-2-((S)-1-hydroxyethyl)oxazol-5-yl)((R)-4-(quinolin-2-yl)-6,7-dihydro-1H-imidazo[4,5-c]pyridin-5(4H)-yl)methanone] | < 500 nM
O=C(c1cn[nH]c1Cl)N1CCc2[nH]cnc2C1c1ccc2ccccc2n1 (stereo in doubt) [Example 123, (S)-(5-chloro-1H-pyrazol-4-yl)(4-(quinolin-2-yl)-6,7-dihydro-1H-imidazo[4,5-c]pyridin-5(4H)-yl)methanone] | 1000 to 5000 nM
O=C(c1cn[nH]c1Cl)N1CCc2[nH]cnc2C1c1ccc2ccccc2n1 (stereo in doubt) [Example 124, (R)-(5-chloro-1H-pyrazol-4-yl)(4-(quinolin-2-yl)-6,7-dihydro-1H-imidazo[4,5-c]pyridin-5(4H)-yl)methanone] | 500 to 1000 nM
O=C(c1cnn(CC(F)(F)F)c1C(F)F)N1CCc2[nH]cnc2C1c1ccc2ccccc2n1 (stereo in doubt) [Example 125, (R)-(5-(difluoromethyl)-1-(2,2,2-trifluoroethyl)-1H-pyrazol-4-yl)(4-(quinolin-2-yl)-6,7-dihydro-1H-imidazo[4,5-c]pyridin-5(4H)-yl)methanone] | 1000 to 5000 nM
O=C(c1cnn(CC(F)(F)F)c1C(F)F)N1CCc2[nH]cnc2C1c1ccc2ccccc2n1 (stereo in doubt) [Example 126, (S)-(5-(difluoromethyl)-1-(2,2,2-trifluoroethyl)-1H-pyrazol-4-yl)(4-(quinolin-2-yl)-6,7-dihydro-1H-imidazo[4,5-c]pyridin-5(4H)-yl)methanone] | > 5000 nM
CC(C)(C#N)c1nc(C(F)F)c(C(=O)N2CCc3[nH]cnc3C2c2ccc3ccccc3n2)o1 (stereo in doubt) [Example 127, (S)-2-(4-(difluoromethyl)-5-(4-(quinolin-2-yl)-4,5,6,7-tetrahydro-1H-imidazo[4,5-c]pyridine-5-carbonyl)oxazol-2-yl)-2-methylpropanenitrile] | 1000 to 5000 nM
CC(C)(C#N)c1nc(C(F)F)c(C(=O)N2CCc3[nH]cnc3C2c2ccc3ccccc3n2)o1 (stereo in doubt) [Example 128, (R)-2-(4-(difluoromethyl)-5-(4-(quinolin-2-yl)-4,5,6,7-tetrahydro-1H-imidazo[4,5-c]pyridine-5-carbonyl)oxazol-2-yl)-2-methylpropanenitrile] | < 500 nM
O=C(c1oc(C2(O)CC2)nc1C(F)F)N1CCc2[nH]cnc2C1c1ccc2ccccc2n1 (stereo in doubt) [Example 129, (S)-(4-(difluoromethyl)-2-(1-hydroxycyclopropyl)oxazol-5-yl)(4-(quinolin-2-yl)-6,7-dihydro-1H-imidazo[4,5-c]pyridin-5(4H)-yl)methanone] | 1000 to 5000 nM
O=C(c1oc(C2(O)CC2)nc1C(F)F)N1CCc2[nH]cnc2C1c1ccc2ccccc2n1 (stereo in doubt) [Example 130, (R)-(4-(difluoromethyl)-2-(1-hydroxycyclopropyl)oxazol-5-yl)(4-(quinolin-2-yl)-6,7-dihydro-1H-imidazo[4,5-c]pyridin-5(4H)-yl)methanone] | < 500 nM
CC(C)(C)c1ncc(C(=O)N2CCc3[nH]cnc3C2c2ccc3ccccc3n2)o1 (stereo in doubt) [Example 258, (R)-(2-(tert-butyl)oxazol-5-yl)(4-(quinolin-2-yl)-6,7-dihydro-1H-imidazo[4,5-c]pyridin-5(4H)-yl)methanone] | < 500 nM
O=C(c1cn[nH]c1C(F)F)N1CCc2[nH]cnc2C1c1ccc2ccccc2n1 (stereo in doubt) [Example 259, (R)-(5-(difluoromethyl)-1H-pyrazol-4-yl)(4-(quinolin-2-yl)-6,7-dihydro-1H-imidazo[4,5-c]pyridin-5(4H)-yl)methanone] | < 500 nM
O=C(c1ccnn1-c1ccccn1)N1CCc2[nH]cnc2C1c1ccc2ccccc2n1 (stereo in doubt) [Example 261, (R)-(1-(pyridin-2-yl)-1H-pyrazol-5-yl)(4-(quinolin-2-yl)-6,7-dihydro-1H-imidazo[4,5-c]pyridin-5(4H)-yl)methanone] | < 500 nM
Cn1nc(Cl)cc1C(=O)N1CCc2[nH]cnc2C1c1ccc2ccccc2n1 (stereo in doubt) [Example 263, (R)-(3-chloro-1-methyl-1H-pyrazol-5-yl)(4-(quinolin-2-yl)-6,7-dihydro-1H-imidazo[4,5-c]pyridin-5(4H)-yl)methanone] | < 500 nM
Cn1nc(Cl)nc1C(=O)N1CCc2[nH]cnc2C1c1ccc2ccccc2n1 (stereo in doubt) [Example 265, (R)-(3-chloro-1-methyl-1H-1,2,4-triazol-5-yl)(4-(quinolin-2-yl)-6,7-dihydro-1H-imidazo[4,5-c]pyridin-5(4H)-yl)methanone] | 500 to 1000 nM
Nc1cc(C(=O)N2CCc3[nH]cnc3C2c2ccc3ccccc3n2)n(C(F)F)n1 (stereo in doubt) [Example 267, (R)-(3-amino-1-(difluoromethyl)-1H-pyrazol-5-yl)(4-(quinolin-2-yl)-6,7-dihydro-1H-imidazo[4,5-c]pyridin-5(4H)-yl)methanone] | 500 to 1000 nM
CCn1cnnc1C(=O)N1CCc2[nH]cnc2C1c1ccc2ccccc2n1 (stereo in doubt) [Example 270, (R)-(4-ethyl-4H-1,2,4-triazol-3-yl)(4-(quinolin-2-yl)-6,7-dihydro-1H-imidazo[4,5-c]pyridin-5(4H)-yl)methanone] | 500 to 1000 nM
O=C(CCc1nccs1)N1CCc2[nH]cnc2C1c1ccc2ccccc2n1 (stereo in doubt) [Example 271, (R)-1-(4-(quinolin-2-yl)-6,7-dihydro-1H-imidazo[4,5-c]pyridin-5(4H)-yl)-3-(thiazol-2-yl)propan-1-one] | 500 to 1000 nM
O=C(CCc1nccs1)N1CCc2[nH]cnc2C1c1ccc2ccccc2n1 (stereo in doubt) [Example 272, (S)-1-(4-(quinolin-2-yl)-6,7-dihydro-1H-imidazo[4,5-c]pyridin-5(4H)-yl)-3-(thiazol-2-yl)propan-1-one] | > 5000 nM
O=C(c1cnc(-c2ccc(F)cn2)s1)N1CCc2[nH]cnc2C1c1cc2ccccc2cn1 (stereo in doubt) [Example 312, (R)-(2-(5-fluoropyridin-2-yl)thiazol-5-y1)(4-(isoquinolin-3-yl)-6,7-dihydro-1H-imidazo[4,5-c]pyridin-5(4H)-yl)methanone] | < 500 nM
O=C(c1nnc(C2CC2)o1)N1CCc2[nH]cnc2C1c1cc2ccccc2cn1 (stereo in doubt) [Example 327, (S)-(5-cyclopropyl-1,3,4-oxadiazol-2-yl)(4-(isoquinolin-3-y1)-6,7-dihydro-1H-imidazo[4,5-c]pyridin-5(4H)-yl)methanone] | > 5000 nM
